Measurements as given in patent publication US10040804B2, “Compounds targeting proteins, compositions, methods, and uses thereof” (BioTheryX, Inc., priority 2016, dated 2018).

Columns and labels:
TNF-α = TNF-α expression in LPS stimulated PBMCs (Meso Scale); type: cell-based, human; details: for inhibition at 0.1 µM / inhibition at 10 µM / inhibition at 1 µM: Homo sapiens, PBMC; for inhibition at 0.1 µM: compound concentration 0.1 μM; for inhibition at 10 µM: compound concentration 10 μM; for inhibition at 1 µM: compound concentration 1 μM
Method: FIGS. 7 and 9C are graphs showing TNF-a expression in LPS stimulated peripheral blood mononuclear cells (PBMCs). PBMCs were plated in 96-well plates and pretreated with compound (Compound 1-9 individually) for 1 h, and then induced with 100 ng/mL LPS for 18-24 h. Cytokines in the media were measured according to MesoScale protocol. The negative control wells were treated with DMSO. Compound activity is measured as a percentage of LPS-induced activity. “Rev” is lenalidomide.
(§1) Frozen primary blood mononuclear cells (PBMCs) and frozen CD14+ mobilized peripheral blood monocytes were purchased from AllCells. Cells were quick thawed, and washed 1-time with RPMI-1640/10% FBS/1% Penicillin/1% Streptomycin and plated in 96-well plates at 200,000 cells per well. Cells were pretreated with DMSO only, Compound 5013 (lenolidamide) or the indicated compound for 1 h and then induced with 100 ng/mL lipopolysaccharide (LPS) for 18-24 h. The supernatant was analyzed for IL-1 beta, IL-6, and TNF-α using Meso Scale assay according to manufacturer's protocol. The negative control wells were treated with DMSO.
(§2) PBMCs: AllCells PB003F, Normal Peripheral Blood MNC.
(§3) Media: RPMI 1640/10% FBS/1% Pen-Strep.

MDA-MB-231 cells = experiment: MDA-MB-231 cell viability (CellTiter-Glo); type: cell-based; details: Homo sapiens, 72 h, 3 days, DMSO = 100.00; for viability at 1 µM: 1 μM compound concentration; for viability at 10 µM: 10 μM compound concentration
Method: (§4) Molm-13 cells were cultivated in RPMI-1640 (10% FBS/1% pen-strep) and were plated in white walled 96-well plates at 20,000 cells/well. H1048 cells were cultured in DMEM:F12 media supplemented with 5% fetal bovine serum, insulin, transferrin, sodium selenite, hydrocortisone, β-estradiol, penicillin and streptomycin, and were plated in white walled 96-well plates at 20,000 cells/well. MDA-MB-231 cells were cultured in DMEM media supplemented with 10% fetal bovine serum, penicillin and streptomycin, and were plated in white walled 96-well plates at 10,000 cells/well. Cells were treated with compound or DMSO (0.1%, control) and the cultures were incubated for 3 days at 37° C. and 5% CO2. Following the incubation period, 100 μL of CellTiterGlow (CTG) reagent (CellTiter-Glo® Luminescent Cell Viability Assay, Promega (Madison, Wis.)) was added to each well. Following a 10 min incubation with shaking, luminescence was measured using a Victor Wallac Luminometer.

IL-6 = IL-6 expression in LPS stimulated PBMCs (Meso Scale); type: cell-based, human; details: for inhibition at 0.1 µM / inhibition at 10 µM / inhibition at 1 µM: Homo sapiens, PBMC, LPS-stimulated PBMCs; for inhibition at 0.1 µM: compound concentration 0.1 μM; for inhibition at 10 µM: compound concentration 10 μM; for inhibition at 1 µM: compound concentration 1 μM
Method: FIGS. 6 and 9B are graphs showing IL-6 expression in LPS stimulated peripheral blood mononuclear cells (PBMCs). PBMCs were plated in 96-well plates and pretreated with compound (Compound 1-9 individually) for 1 h, and then induced with 100 ng/mL LPS for 18-24 h. Cytokines were measured according to MesoScale protocol. Negative control wells were treated with DMSO. Compound activity was measured as a percentage of LPS-induced activity. “Rev” is lenalidomide.
as §1, §2, §3

Molm-13 cells = experiment: Molm-13 cell viability (CellTiter-Glo); type: cell-based; details: Homo sapiens; for cytotoxicity at 10 µM: compound concentration 10 μM; for cytotoxicity at 1 µM: compound concentration 1 μM; for cytotoxicity at 0.1 µM: compound concentration 0.1 μM
Method: (§5) FIG. 10A is a graph showing antiproliferative activity in H1048 (SCLC) cells. FIG. 10B is a graph showing antiproliferative activity in Molm-13 (AML) cells. In FIGS. 10A and 10B, the cells were incubated for 72 hrs with Compound 9 at the indicated concentrations or DMSO. Compound activity was measured based on the signal from remaining viable cells.
as §4

GSPT1 = target: T1, GSPT1 (Homo sapiens, UniProt P15170); experiment: GSPT1 protein levels by Western Blot analysis; type: cell-based; details: DMSO = 100.00; for remaining activity at 0.1 µM: 100 nM compound concentration; for remaining activity at 1 µM: 1 μM compound concentration
T1 construct: Whole cell extracts were prepared using RIPA buffer according to manufacturer's protocol (Pierce); endogenous in cells
T1 sequence (P15170 whole entry): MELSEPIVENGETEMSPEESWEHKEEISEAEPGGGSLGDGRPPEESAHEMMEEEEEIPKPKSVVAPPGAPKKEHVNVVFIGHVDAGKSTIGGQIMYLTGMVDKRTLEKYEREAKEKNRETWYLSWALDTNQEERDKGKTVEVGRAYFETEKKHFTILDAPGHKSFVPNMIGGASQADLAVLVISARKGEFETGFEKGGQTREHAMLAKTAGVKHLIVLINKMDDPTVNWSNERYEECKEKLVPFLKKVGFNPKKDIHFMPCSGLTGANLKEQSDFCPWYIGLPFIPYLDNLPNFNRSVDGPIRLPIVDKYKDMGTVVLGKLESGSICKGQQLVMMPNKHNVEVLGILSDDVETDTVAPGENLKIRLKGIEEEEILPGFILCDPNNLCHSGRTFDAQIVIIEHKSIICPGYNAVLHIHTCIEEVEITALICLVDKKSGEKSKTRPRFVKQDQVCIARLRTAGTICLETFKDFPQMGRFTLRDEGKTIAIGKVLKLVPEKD
T1 sequence (Q96SW2 whole entry, further chain): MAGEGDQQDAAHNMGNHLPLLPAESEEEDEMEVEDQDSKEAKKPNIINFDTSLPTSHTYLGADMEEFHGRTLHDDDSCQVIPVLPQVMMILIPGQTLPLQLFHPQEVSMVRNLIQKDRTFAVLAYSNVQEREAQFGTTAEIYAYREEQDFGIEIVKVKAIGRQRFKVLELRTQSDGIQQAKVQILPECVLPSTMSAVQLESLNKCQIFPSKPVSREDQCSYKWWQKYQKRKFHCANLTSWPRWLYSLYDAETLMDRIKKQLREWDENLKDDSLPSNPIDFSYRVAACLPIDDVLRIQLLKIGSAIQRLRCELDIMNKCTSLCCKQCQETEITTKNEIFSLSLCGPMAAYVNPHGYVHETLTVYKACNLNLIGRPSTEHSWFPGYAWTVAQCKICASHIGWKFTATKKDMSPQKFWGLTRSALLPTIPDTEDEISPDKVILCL
T1 sequence (Q16531 whole entry partner): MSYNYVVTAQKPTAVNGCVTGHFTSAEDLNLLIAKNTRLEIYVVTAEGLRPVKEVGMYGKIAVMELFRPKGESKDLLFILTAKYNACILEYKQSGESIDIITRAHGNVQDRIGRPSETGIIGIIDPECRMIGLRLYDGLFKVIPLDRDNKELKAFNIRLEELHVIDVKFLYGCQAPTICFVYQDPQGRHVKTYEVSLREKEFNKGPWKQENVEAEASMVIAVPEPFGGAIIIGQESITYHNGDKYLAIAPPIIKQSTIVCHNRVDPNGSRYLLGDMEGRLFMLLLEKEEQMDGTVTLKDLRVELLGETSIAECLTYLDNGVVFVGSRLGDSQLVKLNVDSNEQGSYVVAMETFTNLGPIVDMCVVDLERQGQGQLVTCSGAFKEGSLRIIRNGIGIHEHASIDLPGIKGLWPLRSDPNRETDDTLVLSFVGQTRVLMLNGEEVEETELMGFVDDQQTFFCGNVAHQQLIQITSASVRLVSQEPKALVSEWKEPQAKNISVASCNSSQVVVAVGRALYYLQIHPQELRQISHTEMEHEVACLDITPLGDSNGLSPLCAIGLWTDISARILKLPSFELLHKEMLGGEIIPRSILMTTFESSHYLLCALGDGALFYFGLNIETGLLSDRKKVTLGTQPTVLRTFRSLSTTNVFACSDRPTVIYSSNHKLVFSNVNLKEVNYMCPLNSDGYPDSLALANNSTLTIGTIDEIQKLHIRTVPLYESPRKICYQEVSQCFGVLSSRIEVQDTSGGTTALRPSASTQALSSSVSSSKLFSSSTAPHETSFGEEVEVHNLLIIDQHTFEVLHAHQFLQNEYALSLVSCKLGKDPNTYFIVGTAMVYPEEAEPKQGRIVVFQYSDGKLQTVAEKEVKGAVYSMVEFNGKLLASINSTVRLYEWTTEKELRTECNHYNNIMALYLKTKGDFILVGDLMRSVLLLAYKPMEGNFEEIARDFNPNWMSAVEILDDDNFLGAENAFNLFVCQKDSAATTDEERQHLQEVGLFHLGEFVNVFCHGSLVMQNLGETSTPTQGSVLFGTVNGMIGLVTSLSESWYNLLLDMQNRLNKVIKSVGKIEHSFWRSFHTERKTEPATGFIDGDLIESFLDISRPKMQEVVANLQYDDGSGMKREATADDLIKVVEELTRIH
Method: Cells were lysed using RIPA Buffer (Pierce) and a Western Blot analysis was performed using anti-GSPT1 and anti-β-actin antibodies. FIG. 11B is a graph showing the expression levels of GSPT1 protein in Molm-13 (AML) cells. Protein expression levels were measured using the LiCor Odyssey instrumentation and methods.
Western Blot Protocol: Cell lines were grown in RPMI 1640 supplemented with streptomycin, penicillin and 10% fetal bovine serum.
Cells were cultured at approximately 10^6 cells per mL and incubated in DMSO or each of the indicated compounds for 6-8 h. Whole cell extracts were prepared using RIPA buffer according to manufacturer's protocol (Pierce). Briefly, 2×10^6 cells were washed once in PBS, the cell pellets were resuspended in RIPA buffer and allowed to incubate for 15 minutes on ice. Cells debris was removed by centrifugation and the cleared whole cell lysates were transferred to new tubes for further analysis.
For Western blot analysis, whole cell protein extracts were separated on 4-12% SDS-polyacrylamide gels, transferred to nitrocellulose, and probed with the indicated primary antibodies. Membranes were subsequently washed and probed with the appropriate IRDye secondary antibodies (LI-COR). The signal was detected using the Odyssey Imaging System (LI-COR).
GSPT1: Rabbit anti-GSPT1 was obtained from Abcam, ab126090 (Cambridge, Eng.)

H1048 cells = experiment: H1048 cell viability (CellTiter-Glo); type: cell-based; details: Homo sapiens; for viability at 1 µM / viability at 10 µM: NCI-H1048, 72 h, H1048, 3 days, DMSO = 100.00; for viability at 1 µM: 1 μM compound concentration; for viability at 10 µM: 10 μM compound concentration
Method: as §5, §4

IL-1β = IL-1β expression in LPS stimulated PBMCs (Meso Scale); type: cell-based, human; details: for inhibition at 0.1 µM / inhibition at 10 µM / inhibition at 1 µM: Homo sapiens, PBMC; for inhibition at 0.1 µM: compound concentration 0.1 μM; for inhibition at 10 µM: compound concentration 10 μM; for inhibition at 1 µM: compound concentration 1 μM
Method: FIGS. 5 and 9A are graphs showing IL-1-beta expression in LPS stimulated peripheral blood mononuclear cells (PBMCs), PBMCs were plated in 96-well plates and pretreated with compound (Compound 1-9 individually) for 1 h, and then induced with 100 ng/mL LPS for 18-24 h. Cytokines in the media were measured according to MesoScale protocol. Negative control wells were treated with DMSO. Compound activity is measured as a percentage of LPS-induced activity. “Rev” is lenalidomide.
as §1, §2, §3

[1] = MOLM-13, read-out: % Inhibition (MOLM-13 Cell Viability)

| SMILES | viability at 1 µM (MDA-MB-231 cells) [%] | viability at 10 µM (MDA-MB-231 cells) [%] | viability at 1 µM (H1048 cells) [%] | viability at 10 µM (H1048 cells) [%] | inhibition at 10 µM (TNF-α) [%] | inhibition at 10 µM (IL-6) [%] | inhibition at 10 µM (IL-1β) [%] | inhibition at 1 µM (TNF-α) [%] | inhibition at 1 µM (IL-6) [%] | cytotoxicity at 1 µM (Molm-13 cells; [1]) [%] | inhibition at 1 µM (IL-1β) [%] | further results |
| --- | --- | --- | --- | --- | --- | --- | --- | --- | --- | --- | --- | --- |
| Cc1ccc(NC(=O)NCc2scc3c2CN(C2CCC(=O)NC2=O)C3=O)cc1Cl (centres unmarked) [Compound 9, 1-(3-chloro-4-methylphenyl)-3-((5-(2,6-dioxopiperidin-3-yl)-4-oxo-5,6-dihydro-4H-thieno[3,4-c]pyrrol-1-yl)methyl)urea] | 19.6 | 19.1 | 7.5 | 7.93 | – | – | – | – | – | – | – | inhibition at 0.1 µM (TNF-α): 98%; inhibition at 0.1 µM (IL-6): 100%; cytotoxicity at 0.003 µM (Molm-13 cells; MOLM-13, compound concentration 0.003 μM, read-out: % Inhibition (MOLM-13 Cell Viability)): 50%; IC50 (Molm-13 cells; Molm-13 cells, 72 hrs (FIG. 10B), read-out: approximate IC50 cell viability): ~3 nM; remaining activity at 0.1 µM (GSPT1): 6.77%; remaining activity at 1 µM (GSPT1): 5.31%; IC50 (H1048 cells; NCI-H1048, H1048 cells, 72 hrs (FIG. 10A)): 0.5 nM; inhibition at 0.1 µM (IL-1β): 98% |
| O=C1CCC(N2Cc3c(csc3C(F)(F)F)C2=O)C(=O)N1 (centres unmarked) [Compound 29, 3-(4-Oxo-1-(trifluoromethyl)-4H-thieno[3,4-c]pyrrol-5(6H)-yl)piperidine-2,6-dione] | – | – | – | – | 60 | 19 | 57 | – | – | – | – | cytotoxicity at 10 µM (Molm-13 cells; [1]): 10% |
| Cc1ccc(NC(=O)NCc2csc3c2CN([C@H]2CCCC(=O)NC2=O)C3=O)cc1Cl [Compound 45, (S)-1-(3-Chloro-4-methylphenyl)-3-((5-(2,7-dioxoazepan-3-yl)-6-oxo-5,6-dihydro-4H-thieno[2,3-c]pyrrol-3-yl)methyl)urea] | 101 | 46.7 | 12.7 | 9.89 | – | – | – | 22 | 18 | 59 | 19 | remaining activity at 0.1 µM (GSPT1): 90.3%; remaining activity at 1 µM (GSPT1): 22.3% |
| Cc1ccc(NC(=O)NCc2scc3c2CN(C2CCC(=O)NC2=O)C3=O)nc1Cl (centres unmarked) [Compound 46, 1-(6-Chloro-5-methylpyridin-2-yl)-3-((5-(2,6-dioxopiperidin-3-yl)-4-oxo-5,6-dihydro-4H-thieno[3,4-c]pyrrol-1-yl)methyl)urea] | 29 | 24.1 | 9.35 | 11.5 | – | – | – | – | – | – | – | inhibition at 0.1 µM (TNF-α): 58%; inhibition at 0.1 µM (IL-6): 85%; cytotoxicity at 0.1 µM (Molm-13 cells; [1]): 100%; remaining activity at 0.1 µM (GSPT1): 65.2%; remaining activity at 1 µM (GSPT1): 4.73%; inhibition at 0.1 µM (IL-1β): 54% |
| Cc1ccc(NC(=O)Nc2scc3c2CN(C2CCC(=O)NC2=O)C3=O)cc1Cl (centres unmarked) [Compound 50, 1-(3-Chloro-4-methylphenyl)-3-(5-(2,6-dioxopiperidin-3-yl)-4-oxo-5,6-dihydro-4H-thieno[3,4-c]pyrrol-1-yl)urea] | 108 | 95.7 | 15.8 | 13.4 | – | – | – | 1 | 0 | 41 | 14 | – |
| Cc1ccc(CNC(=O)NCc2csc3c2CN([C@H]2CCCC(=O)NC2=O)C3=O)cc1Cl [Compound 51, (S)-1-(3-Chloro-4-methylbenzyl)-3-((5-(2,7-dioxoazepan-3-yl)-6-oxo-5,6-dihydro-4H-thieno[2,3-c]pyrrol-3-yl)methyl)urea] | 108 | 103 | 94.9 | 24.1 | – | – | – | 49 | 5 | 0 | 38 | – |
| Cc1ccc(CC(=O)Nc2scc3c2CN(C2CCC(=O)NC2=O)C3=O)cc1Cl (centres unmarked) [Compound 56, 2-(3-Chloro-4-methylphenyl)-N-(5-(2,6-dioxopiperidin-3-yl)-4-oxo-5,6-dihydro-4H-thieno[3,4-c]pyrrol-1-yl)acetamide] | 108 | 101 | 29.1 | 26.3 | – | – | – | 59 | 12 | – | 55 | cytotoxicity at 0.1 µM (Molm-13 cells; [1]): 10% |
| Cc1cnc(Nc2ccc(OCCCNC(=O)NCc3scc4c3CN(C3CCC(=O)NC3=O)C4=O)cc2)nc1Nc1cccc(S(=O)(=O)NC(C)(C)C)c1 (centres unmarked) [Compound 62, N-(tert-Butyl)-3-((2-((4-(3-(3-((5-(2,6-dioxopiperidin-3-yl)-4-oxo-5,6-dihydro-4H-thieno[3,4-c]pyrrol-1-yl)methyl)ureido)propoxy)phenyl)amino)-5-methylpyrimidin-4-yl)amino)benzenesulfonamide] | – | – | – | – | 63 | 15 | 51 | – | – | 71 | – | – |
| Cc1sc2c(c1C)C(c1ccc(Cl)cc1)=N[C@@H](CC(=O)NCCCCNCC(=O)NCc1scc3c1CN([C@H]1CCCC(=O)NC1=O)C3=O)c1nnc(C)n1-2 [Compound 63, 2-((S)-4-(4-Chlorophenyl)-2,3,9-trimethyl-6H-thieno[3,2-f][1,2,4]triazolo[4,3-a][1,4]diazepin-6-yl)-N-(4-((2-(((5-((S)-2,7-dioxoazepan-3-yl)-4-oxo-5,6-dihydro-4H-thieno[3,4-c]pyrrol-1-yl)methyl)amino)-2-oxoethyl)amino)butyl)acetamide] | – | – | – | – | 34 | 1 | 27 | – | – | – | – | – |
| O=C1CCC(N2Cc3c(C4CCCC4)csc3C2=O)C(=O)N1 (centres unmarked) [Compound 64, 3-(3-Cyclopentyl-6-oxo-4H-thieno[2,3-c]pyrrol-5(6H)-yl)piperidine-2,6-dione] | – | – | – | – | 45 | 8 | 22 | – | – | – | – | cytotoxicity at 10 µM (Molm-13 cells; [1]): 13% |
| Nc1cccc2c1CN(C1CCC(=O)NC1=O)C2=O (centres unmarked) [lenalidomide, reference compound] | – | – | – | – | – | – | – | – | – | – | – | reduction of expression of TNF-α (TNF-α; equimolar concentration (FIG. 7)): below 60%; reduction of IL-6 levels (IL-6; LPS-stimulated PBMCs (FIG. 6)): below 60%; reduction of expression of IL-1-b (IL-1β; equimolar concentration (FIG. 5)): over 60% |
